Laboratory results as given in US20230321171A1, “ANTI-COCCIDIAL COMPOSITION COMPRISING MANGOSTEEN AND USES THEREOF” (CJ CHEILJEDANG CORPORATION, priority 2020, published 2023).

Key:
Eimeria tenella [1] = test: Protozoan (sporozoite) direct killing ability, Eimeria tenella; assay type: cell-based; details: Table 15, method similar to Example 2-1
[2] = tested on: MDBK(Madin-Darby Bovine Kidney Epithelial Cells); test: Cytotoxicity, MTS analysis, MDBK; details: 3.1~500 ppm/well, 14 hours + 2 hours MTS, vs 5% DMSO treatment group
Excerpt: (§1) In the present example, using MTS analysis method (3-(4,5-[…])-5-(3-carboxymethoxyphenyl)-2-(4-sulfophenyl)-2H-tetrazolium, promega, USA), an effect on survival of cells of the mangosteen extract was investigated.
(§2) The cell lines utilized in cytotoxicity evaluation were (1) MDBK(Madin-Darby Bovine Kidney Epithelial Cells) and (2) RAW264.7(Mouse macrophage cell), and all of them were purchased from ATCC and used.
(§3) Each cell was aliquoted at a concentration of 1×10^5 cell/well in a 96-well cell culture plate, and cultured at 37° C. for 24 hours, and then each material (mangosteen extract, xanthone, alpha-mangostin and epicatechin) was treated by concentration (3.1˜500 ppm/well) and cultured at a temperature of 37° C.

Eimeria tenella [3] = test: Protozoan (sporozoite) direct killing ability, Eimeria tenella; assay type: cell-based; details: for Eimeria tenella protozoal death rate: Table 12 comparison with individual components; for Eimeria tenella protozoal death rate (%): compared to PBS-treated negative control group; for Minimum concentration for killing 100% protozoa (ppm), Eimeria tenella: tested 1 to 500 ppm
Experimental: (§4) In the present example, protozoan (sporozoite) direct killing ability evaluation was conducted against 3 representative Eimeria kinds known to be infected in most farms (E. tenella, E. acervulina, E. maxima).
(§5) A certain amount of oocysts of each protozoan was put in a tube containing glass beads and pulverized, and then to remove the crushed oocyst cell wall and other debris, internal sporocysts were purified using the percoll density gradient, and washed with PBS solution. A reagent comprising sodium taurocholic acid (Sigma aldrich, USA) and trypsin (Gibco, USA), respectively, was treated to sporocysts of Eimeria tenella, Eimeria acervulina and Eimeria maxima for excystation and they were incubated, and then they were washed with PBS solution once and protozoa were obtained.
(§6) After reacting the mangosteen pericarp extract, epicatechin, alpha-mangostin, xanthone and anticoccidial agents, salinomycin and diclazuril (hereinafter, material) with 3 kinds of Eimeria protozoa at various concentrations of 1 to 500 ppm, respectively, only alive protozoa (sporozoites) were counted through microscopic observation. Then, the death rate (%) of the protozoa when each material was treated compared to the PBS-treated negative control group was calculated and shown in Table 8 to Table 10 and Table 12, respectively, and the minimum concentration which directly killed the protozoa by 100% was shown in Table 11 below.

[4] = tested on: RAW264.7(Mouse macrophage cell); test: Cytotoxicity, MTS analysis, RAW264.7; details: 3.1~500 ppm/well, 14 hours + 2 hours MTS, vs 5% DMSO treatment group
Excerpt: as §1, §2, §3

Eimeria acervulina = test: Protozoan (sporozoite) direct killing ability, Eimeria acervulina; assay type: cell-based; details: for Eimeria acervulina protozoal death rate (%): compared to PBS-treated negative control group; for Minimum concentration for killing 100% protozoa (ppm), Eimeria acervulina: tested 1 to 500 ppm
Experimental: as §4, §5, §6

Eimeria maxima = test: Protozoan (sporozoite) direct killing ability, Eimeria maxima; assay type: cell-based; details: for Eimeria maxima protozoal death rate (%): compared to PBS-treated negative control group; for Minimum concentration for killing 100% protozoa (ppm), Eimeria maxima: tested 1 to 500 ppm
Experimental: as §4, §5, §6

Eimeria tenella [5] = test: In vivo anticoccidial efficacy evaluation in broilers challenge-inoculated with Eimeria tenella; set-up: species or system Ross broilers
Experimental: An in vivo anticoccidial efficacy evaluation test was performed in an animal experiment facility in Gyeongsangnam-do, South Korea. One-day-old female Ross broilers were individually weighed and randomly divided into groups to use in an experiment. Matters and conditions for experimental design were described in Table 2.
(§7) A breeding farm was managed according to the Korean poultry breeding management guidelines. Cages and the breeding farm were cleaned and disinfected before starting the test. The temperature of […] and the humidity of 40 to 50% of the breeding farm were maintained, and it was continuously monitored.
(§8) For the feed, Korea Feed Al-choi product was used, and each material (salinomycin (Cheil Bio Cheilsalino-60 product), xanthone (Sigma Aldrich X600 product), and the mangosteen extract prepared in Example 1-2 above) was added to the feed, respectively, at a concentration described in Table 3 below to be self-mixed. Antibiotics and supplements were not used in general feed and mixed feed, and no anticoccidial agent other than each material was added. Broilers were fed ad libitum throughout the experiment period. After putting 20 1-day-age broilers in cages randomly placed for each of the control group or test group and breeding, general feed was fed for 7 days, and then the mixed feed prepared above was ingested by dividing by control group or test group.
The feed formulation administered to the control group (negative control group or positive control group) and test group and whether coccidiosis was induced by Eimeria tenella were described in Table 3 below. 20 1-day-old broilers were put in a cage randomly arranged for each test group, and after 7 days of feeding the general feed, the formulated feed as described in Table 3 was divided into each test group and ingested.
14-day-old broilers were orally inoculated with 10,000 oocysts (90% sporulated Eimeria tenella oocysts) per individual to induce coccidiosis.
The anticoccidial efficacy by test group designed in Example 1-3 above was shown as an anticoccidial index (ACI), and the anticoccidial index was calculated by Equation 2 below. The ACI score is out of 200 points, and the higher the ACI score, the more excellent the anticoccidial ability, and when it is 120 points or more to less than 140 points, it is determined that it is effective as an anticoccidial material, and when it is 140 points or more to less than 160 points, it is determined that it is excellent as an anticoccidial material, and when it is 160 points or more, it is determined that the anticoccidial effect is very excellent. (Luis Miguel De Pablos et al., Anticoccidial activity of maslinic acid against infection with Eimeria tenella in chickens, Parasitol Res, 2010)
Anticoccidial index (ACI)=(survival rate after challenge inoculation (%))+(daily weight gain compared to negative control group (RWG, %))−(lesion score×10)−(fecal oocyst excretion amount index) (Equation 2)
1) Survival rate: the number of dead individuals was recorded daily, and post mortem autopsy was performed to determine a cause of mortality, and the number of individuals who died due to causes other than coccidiosis was excluded. The survival rate (%) up to the 8th day after challenge inoculation was used for anticoccidial index calculation.
2) Daily weight gain: body weight was measured for each cage before challenge inoculation with a protozoan into an individual and at the 7th day after challenge inoculation, and the difference was divided by the number of days to calculate the daily weight gain (ADG, g/d). ‘Daily weight gain compared to the negative control group (RWG, %)’which was calculated by dividing the daily weight gain (ADG, average daily gain; g/d) of each experimental group by the weight gain (ADG, g/d) of the non-infected negative control group and multiplying by 100 was used for anticoccidial index calculation. […]

[6] = Broiler growth effect (daily weight gain) due to intake in feed; assay type: in vivo, Ross broilers; details: formulated feed 60 ppm for 7 days
Experimental: An efficacy evaluation test was performed in an animal experiment facility in Gyeongsangnam-do, South Korea. One-day-old female Ross broilers were individually weighed and randomly divided into groups to use in an experiment. Matters and conditions for experimental design were described in Table 16.
as §7
as §8, with “A1-choi” for “Al-choi”, “17” for “3”, “group. The feed formulation administered to the control group (negative control group or positive control group) and test group was described in Table 17 below.” for “group.”
The body weight before feeding and on the 7th day after feeding the feed of Table 16 above into individuals was measured, and the difference was divided by the number of days to calculate the daily weight gain (ADG, g/d), and the result was shown in Table 18. For comparison between 6 treatment groups, Duncan post-test multiple comparison method was used, and statistical significance was verified using a SAS statistical program, and the result was shown in Table 18.

SMILES: COc1c(O)cc2oc3cc(O)c(CC=C(C)C)c(O)c3c(=O)c2c1CC=C(C)C [Alpha-mangostin, alpha-mangostin]
- Minimum concentrataion of killing protozoa 100% (ppm) (Eimeria tenella [1]): ≥31.3 ppm
- Minimum concentrataion of cytotoxicity at which cells of 50% or more survive (ppm) [2]: ≥7.8 ppm
- Eimeria tenella protozoal death rate (Eimeria tenella [3]; 3.9 ppm): 23.3%
- Eimeria tenella protozoal death rate (Eimeria tenella [3]; 7.8 ppm): 50%
- Eimeria tenella protozoal death rate (Eimeria tenella [3]; 15.6 ppm): 93.3%
- Minimum concentrataion of cytotoxicity at which cells of 50% or more survive (ppm) [4]: ≥15.6 ppm

SMILES: N#CC(c1ccc(Cl)cc1)c1c(Cl)cc(-n2ncc(=O)[nH]c2=O)cc1Cl (centres unmarked) [Diclazuril, diclazuril]
- Eimeria acervulina protozoal death rate (%) (Eimeria acervulina; 1 ppm): 0%
- Eimeria acervulina protozoal death rate (%) (Eimeria acervulina; 5 ppm): 0%
- Eimeria acervulina protozoal death rate (%) (Eimeria acervulina; 10 ppm): 0%
- Eimeria acervulina protozoal death rate (%) (Eimeria acervulina; 50 ppm): 0%
- Eimeria acervulina protozoal death rate (%) (Eimeria acervulina; 100 ppm): 0%
- Eimeria acervulina protozoal death rate (%) (Eimeria acervulina; 125 ppm): 23%
- Eimeria acervulina protozoal death rate (%) (Eimeria acervulina; 250 ppm): 12%
- Eimeria acervulina protozoal death rate (%) (Eimeria acervulina; 500 ppm): 44%
- Minimum concentration for killing 100% protozoa (ppm), Eimeria acervulina (Eimeria acervulina): 500 ppm
- Eimeria maxima protozoal death rate (%) (Eimeria maxima; 1 ppm): 0%
- Eimeria maxima protozoal death rate (%) (Eimeria maxima; 5 ppm): 0%
- Eimeria maxima protozoal death rate (%) (Eimeria maxima; 10 ppm): 0%
- Eimeria maxima protozoal death rate (%) (Eimeria maxima; 50 ppm): 0%
- Eimeria maxima protozoal death rate (%) (Eimeria maxima; 100 ppm): 0%
- Eimeria maxima protozoal death rate (%) (Eimeria maxima; 125 ppm): 0%
- Eimeria maxima protozoal death rate (%) (Eimeria maxima; 250 ppm): 16%
- Eimeria maxima protozoal death rate (%) (Eimeria maxima; 500 ppm): 30%
- Minimum concentration for killing 100% protozoa (ppm), Eimeria maxima (Eimeria maxima): >500 ppm
- Eimeria tenella protozoal death rate (%) (Eimeria tenella [3]; 1 ppm): 0%
- Eimeria tenella protozoal death rate (%) (Eimeria tenella [3]; 5 ppm): 0%
- Eimeria tenella protozoal death rate (%) (Eimeria tenella [3]; 10 ppm): 0%
- Eimeria tenella protozoal death rate (%) (Eimeria tenella [3]; 50 ppm): 0%
- Eimeria tenella protozoal death rate (%) (Eimeria tenella [3]; 100 ppm): 0%
- Eimeria tenella protozoal death rate (%) (Eimeria tenella [3]; 125 ppm): 0%
- Eimeria tenella protozoal death rate (%) (Eimeria tenella [3]; 250 ppm): 35%
- Eimeria tenella protozoal death rate (%) (Eimeria tenella [3]; 500 ppm): 44%
- Minimum concentration for killing 100% protozoa (ppm), Eimeria tenella (Eimeria tenella [3]): >500 ppm

SMILES: Oc1cc(O)c2c(c1)O[C@H](c1ccc(O)c(O)c1)[C@H](O)C2 [Epicatechin, epicatechin]
- Minimum concentrataion of killing protozoa 100% (ppm) (Eimeria tenella [1]): ≥500 ppm
- Eimeria tenella protozoal death rate (Eimeria tenella [3]; 3.9 ppm): 0%
- Eimeria tenella protozoal death rate (Eimeria tenella [3]; 7.8 ppm): 0%
- Eimeria tenella protozoal death rate (Eimeria tenella [3]; 15.6 ppm): 0%

SMILES: CC[C@@H](C(=O)[C@@H](C)[C@@H](O)[C@H](C)[C@@H]1O[C@@H]([C@@H](CC)C(=O)O)CC[C@@H]1C)[C@H]1O[C@]2(C=C[C@@H](O)[C@]3(CC[C@@](C)([C@H]4CC[C@](O)(CC)[C@H](C)O4)O3)O2)[C@H](C)C[C@@H]1C [Salinomycin, salinomycin]
- Eimeria acervulina protozoal death rate (%) (Eimeria acervulina; 1 ppm): 0%
- Eimeria acervulina protozoal death rate (%) (Eimeria acervulina; 5 ppm): 0%
- Eimeria acervulina protozoal death rate (%) (Eimeria acervulina; 10 ppm): 0%
- Eimeria acervulina protozoal death rate (%) (Eimeria acervulina; 50 ppm): 0%
- Eimeria acervulina protozoal death rate (%) (Eimeria acervulina; 100 ppm): 60%
- Eimeria acervulina protozoal death rate (%) (Eimeria acervulina; 125 ppm): 73%
- Eimeria acervulina protozoal death rate (%) (Eimeria acervulina; 250 ppm): 100%
- Eimeria acervulina protozoal death rate (%) (Eimeria acervulina; 500 ppm): 100%
- Minimum concentration for killing 100% protozoa (ppm), Eimeria acervulina (Eimeria acervulina): 250 ppm
- Intermediate body weight (14-day-old, before challenge inoculation) (Eimeria tenella [5]; formulated feed 60 ppm from day 7, female Ross broilers): 455.9
- Appendix lesion score (Eimeria tenella [5]; formulated feed 60 ppm, 8th day after challenge inoculation, scale of 0-4): 2.7
- End body weight (21-day-old, on the 7th day of challenge inoculation) (Eimeria tenella [5]; formulated feed 60 ppm, 10,000 E. tenella oocysts oral at 14 days): 917.6
- Day 14~Day 21 ADG (daily weight gain) (Eimeria tenella [5]; formulated feed 60 ppm, E. tenella infected broilers): 62.46 g/day
- Anticoccidial index (ACI) (Eimeria tenella [5]; formulated feed 60 ppm, Equation 2, out of 200 points): 141
- Oocyst excretion amount/gram (Eimeria tenella [5]; formulated feed 60 ppm, feces of 6~8th day of challenge inoculation, McMaster chamber): 1.30E+08 /gram
- RWG (daily weight gain compared to the negative control group) (Eimeria tenella [5]; formulated feed 60 ppm, relative to non-infected negative control group): 94%
- Eimeria maxima protozoal death rate (%) (Eimeria maxima; 1 ppm): 0%
- Eimeria maxima protozoal death rate (%) (Eimeria maxima; 5 ppm): 0%
- Eimeria maxima protozoal death rate (%) (Eimeria maxima; 10 ppm): 0%
- Eimeria maxima protozoal death rate (%) (Eimeria maxima; 50 ppm): 0%
- Eimeria maxima protozoal death rate (%) (Eimeria maxima; 100 ppm): 59%
- Eimeria maxima protozoal death rate (%) (Eimeria maxima; 125 ppm): 65%
- Eimeria maxima protozoal death rate (%) (Eimeria maxima; 250 ppm): 97%
- Eimeria maxima protozoal death rate (%) (Eimeria maxima; 500 ppm): 100%
- Minimum concentration for killing 100% protozoa (ppm), Eimeria maxima (Eimeria maxima): 500 ppm
- Eimeria tenella protozoal death rate (%) (Eimeria tenella [3]; 1 ppm): 0%
- Eimeria tenella protozoal death rate (%) (Eimeria tenella [3]; 5 ppm): 0%
- Eimeria tenella protozoal death rate (%) (Eimeria tenella [3]; 10 ppm): 0%
- Eimeria tenella protozoal death rate (%) (Eimeria tenella [3]; 50 ppm): 0%
- Eimeria tenella protozoal death rate (%) (Eimeria tenella [3]; 100 ppm): 46%
- Eimeria tenella protozoal death rate (%) (Eimeria tenella [3]; 125 ppm): 74%
- Eimeria tenella protozoal death rate (%) (Eimeria tenella [3]; 250 ppm): 100%
- Eimeria tenella protozoal death rate (%) (Eimeria tenella [3]; 500 ppm): 100%
- Minimum concentration for killing 100% protozoa (ppm), Eimeria tenella (Eimeria tenella [3]): 500 ppm
- Daily weight gain (ADG) [6]: 46.86 g/day
- End-initial body weight (7 days, g) [6]: 328 g
- End body weight ([6]; non-infected broilers): 526 g
